Measured values: paper PMC10191619, “Bilirubin gates the TRPM2 channel as a direct agonist to exacerbate ischemic brain damage” (Neuron, 2023)

Columns and labels:
[1] = Serum and CSF TB / UCB measurement after bilirubin injection and tMCAO; type: in vivo, mouse
Description: Trpm2^+/+, Trpm2^-/- and D1066A C57BL/6 mice were anesthetized by intraperitoneal injection of pentobarbital (55 mg/kg) 24 hours before tMCAO operation, and then fixed in the stereotactic setup (RWD Life Science). The skin above the skull from the base of the neck up to in between the eyes was cut open. A hole directly above the right ventricle was made with a grinding drill to allow insertion of the micro syringe into the lateral ventricle (coordinates: 1.1 mm laterally to the right and 0.5 mm posterior of the bregma, 2.5 mm deep). CSF was collected by using the micro injection pump (speed: 0.2 μl/min), after which the syringe was withdrawn, and the skin was sutured. The mice were removed from the stereotactic setup and 50 μl blood was taken through the orbital venous plexus. Mice were then placed on 37 °C heating blanket till they regained consciousness and returned to the cage. 1 or 24 hours after tMCAO, animals were anesthetized using a 2% isoflurane-oxygen mixture. CSF and blood were collected in the same way before sacrifice. All samples were centrifuged at 3000 r/min. Total bilirubin concentration of supernatants was measured with the Bilirubin Reagent Kit (Sigma). Samples were transferred to a 96-plates and mixed with reaction solution before measurements of their absorbance were made at 530 nm 10 minutes later. UCB concentration was measured with UnaG, a bilirubin-inducible fluorescent protein from Japanese eel muscle. For standard calibration curve of fluorescence intensity, a 100 μl reaction mixture containing 50 μl UnaG solution (1 μM) and 50 μl artificial bilirubin solution with concentration gradient (1.4278 μM, 0.7139 μM, 0.3573 μM, 0.1785 μM, 0.0893 μM and 0 μM) was prepared. After 10 minutes of reaction, the fluorescence intensity was detected by microplate reader (Synergy H1M, Bio Tek) with fluorescence filters for excitation and emission wavelengths of 485 and 528 nm, respectively. Serum and CSF samples were diluted 20-fold with PBS and fluorescence intensity was measured. The UCB levels were extrapolated from the standard curve.

[2] = target: T1, human TRPM2 (hTRPM2) channel (Homo sapiens, UniProt O94759); assay: Whole-cell patch-clamp of TRPM2 currents (voltage ramps) in HEK-hTRPM2 cells; type: cell-based
T1 construct: expressed in transfected cells; host or cells: HEK293 cells with tetracycline-inducible expression of hTRPM2 (HEK-hTRPM2)
Description: (§1) Human embryonic kidney 293 (HEK293) cells with tetracycline-inducible expression of human TRPM2 channel (hTRPM2) were cultured in a mixed medium containing DMEM/ F-12 (Gibco, USA) and 10% fetal bovine serum (Gibco, USA) as well as blasticidin (50 μg/ml, Invivogen, USA) and zeocin (0.4 mg/ml, Invivogen, USA). The expression of hTRPM2 was induced by substituting blasticin and zeocin for tetracycline (1 μg/ml, Sigma, USA) 24-48 hours before use. TRPM2 channel mutants were transiently expressed in HEK293T cells by transfection with using Lipofectamine 3000. Briefly, HEK293T cells were transiently transfected with cDNAs encoding the mutant hTRPM2 channel. The cDNA for GFP was co-transfected as a marker for identification of the transfected cells for electrophysiological experiments 16-24 hours after transfection. All the cells were seeded on 96-well coverslips (3 x 3 mm, WHB) and cultured at 37 °C under a humidified atmosphere containing 5% CO2.
Coronal cortical slices were transferred into the recording chamber and continuously perfused at room temperature with ACSF oxygenated with 95% O2 and 5% CO2. Cortical pyramidal neurons were visualized by an upright microscope (Carl Zeiss) equipped with a CCD monochrome video camera (IR-1000, DAGE-MTI) and identified by their localization in Layer V. Electrophysiology data were sampled (50 kHz) and lowpass filtered (5kHz four-pole Bessel filter) by a MultiClamp 700B dual channel amplifier (Molecular Devices). The patch electrodes were pulled from borosilicate capillary glass (1.5 mm outer diameter; 0.86 mm inner diameter; World Precision Instruments, USA) with a horizontal multi-step micropipette puller (Model, P-1000, Sutter Instrument). […] After forming >1 GΩ resistance seal in cell-attached configuration, we broke the patch membrane and kept the neurons at -64 mV and then performed whole-cell current-clamp recordings. Cells requiring holding current > -150 pA at -60 mV were discarded. The resting membrane potential (Vrest) was tested in I = 0 configuration. Intrinsic excitability was tested by 500 ms long current steps between -200 and +400 pA with 50-pA increments in the presence of blockers for AMPA, NMDA, and GABA receptors (APV, 50 μM; NBQX, 10 μM; bicuculine 10 μM, strychnine 1 μM). Only one recording was conducted per brain slice. For whole-cell or single channel recordings from transfected HEK-293T cells, the coverslips were placed in a culture dish (35 × 35 mm, Sorfa) containing HEPES based extracellular solution (ECS) and recorded by patch-clamp technique. Cells were visualized by using the phase-contrast mode of an inverted microscope (TE-2000U; Nikon, Japan) and the patch pipette was positioned on the cells using a motorized micromanipulator (MP-225; Sutter) under the microscope. The transfected cells were voltage-clamped at 0 mV and subjected to voltage ramps from -100 mV to +100 mV (500 ms duration) every 5 s. The basal ramp current (i.e., the trace when the leak current is stable after membrane rupture) before channel activation were used for leak subtraction of all subsequent ramp currents. Each coverslip was recorded only once with different drug exposures. Single-channel recordings were carried out under outside-out configuration, using pipettes with resistance of 6-8 MΩ. The excised patches were voltage-clamped from -80 mV to +80 mV (in 20 mV increasement) to generate the current-voltage (I-V) relationship of single channel currents from which their main conductance was calculated from the slope by linear regression of the mean current amplitude at different potentials. Single-channel recordings of the cortical neurons were performed by adding 4-AP, TEA-Cl, CsCl2 and TTX to block sodium channel, potassium channel and calcium channel.
The cutting solution for brain slices contained the following (in mM): 87 NaCl, 75 sucrose, 2.5 KCl, 10 glucose, 1.25 NaH2PO4, 2 Na-pyruvate, 3 myo-inositol, 0.5 ascorbic acid, 26 NaHCO3,7 MgCl2, and 0.1 CaCl2 (pH 7.4; 290-320 mOsm).

hTRPM2 R302A/R358A = target: T2, hTRPM2 R302A/R358A (Homo sapiens, UniProt O94759, R302A/R358A); assay: Whole-cell patch-clamp, N-terminal ADPR-binding site mutant; type: cell-based; conditions: bilirubin
T2 construct: expressed in transfected cells; host or cells: HEK293T cells, transient transfection (Lipofectamine 3000), GFP cDNA co-transfected as a separate marker
Description: as §1, with “All the cells were seeded on 96-well coverslips (3 x 3 mm, WHB) and cultured at 37 °C under a humidified atmosphere containing 5% CO2.” left out
Coronal cortical slices were transferred into the recording chamber and continuously perfused at room temperature with ACSF oxygenated with 95% O2 and 5% CO2. […] For whole-cell or single channel recordings from transfected HEK-293T cells, the coverslips were placed in a culture dish (35 × 35 mm, Sorfa) containing HEPES based extracellular solution (ECS) and recorded by patch-clamp technique. […] Each coverslip was recorded only once with different drug exposures. […]

[3] = target: T1, human TRPM2 (hTRPM2) channel; assay: Single-channel outside-out recordings from HEK-hTRPM2 cells; type: cell-based
Description: as §1
Coronal cortical slices were transferred into the recording chamber and continuously perfused at room temperature with ACSF oxygenated with 95% O2 and 5% CO2. Cortical pyramidal neurons were visualized by an upright microscope (Carl Zeiss) equipped with a CCD monochrome video camera (IR-1000, DAGE-MTI) and identified by their localization in Layer V. Electrophysiology data were sampled (50 kHz) and lowpass filtered (5kHz four-pole Bessel filter) by a MultiClamp 700B dual channel amplifier (Molecular Devices). The patch electrodes were pulled from borosilicate capillary glass (1.5 mm outer diameter; 0.86 mm inner diameter; World Precision Instruments, USA) with a horizontal multi-step micropipette puller (Model, P-1000, Sutter Instrument). […] After forming >1 GΩ resistance seal in cell-attached configuration, we broke the patch membrane and kept the neurons at -64 mV and then performed whole-cell current-clamp recordings. Cells requiring holding current > -150 pA at -60 mV were discarded. The resting membrane potential (Vrest) was tested in I = 0 configuration. […] For whole-cell or single channel recordings from transfected HEK-293T cells, the coverslips were placed in a culture dish (35 × 35 mm, Sorfa) containing HEPES based extracellular solution (ECS) and recorded by patch-clamp technique. […] Each coverslip was recorded only once with different drug exposures. […] The excised patches were voltage-clamped from -80 mV to +80 mV (in 20 mV increasement) to generate the current-voltage (I-V) relationship of single channel currents from which their main conductance was calculated from the slope by linear regression of the mean current amplitude at different potentials. […]

[4] = test system: hTRPM2 pore mutants (P983A, D987A, A1046C, N1049C); assay: Whole-cell patch-clamp, pore mutants; type: cell-based, human; conditions: bilirubin
[5] = test system: layer 5 cortical pyramidal neurons from adult Trpm2−/− mice; assay: Whole-cell current-clamp, intrinsic excitability in brain slices, Trpm2-/-; type: cell-based, mouse

T1 sequence (O94759 whole entry): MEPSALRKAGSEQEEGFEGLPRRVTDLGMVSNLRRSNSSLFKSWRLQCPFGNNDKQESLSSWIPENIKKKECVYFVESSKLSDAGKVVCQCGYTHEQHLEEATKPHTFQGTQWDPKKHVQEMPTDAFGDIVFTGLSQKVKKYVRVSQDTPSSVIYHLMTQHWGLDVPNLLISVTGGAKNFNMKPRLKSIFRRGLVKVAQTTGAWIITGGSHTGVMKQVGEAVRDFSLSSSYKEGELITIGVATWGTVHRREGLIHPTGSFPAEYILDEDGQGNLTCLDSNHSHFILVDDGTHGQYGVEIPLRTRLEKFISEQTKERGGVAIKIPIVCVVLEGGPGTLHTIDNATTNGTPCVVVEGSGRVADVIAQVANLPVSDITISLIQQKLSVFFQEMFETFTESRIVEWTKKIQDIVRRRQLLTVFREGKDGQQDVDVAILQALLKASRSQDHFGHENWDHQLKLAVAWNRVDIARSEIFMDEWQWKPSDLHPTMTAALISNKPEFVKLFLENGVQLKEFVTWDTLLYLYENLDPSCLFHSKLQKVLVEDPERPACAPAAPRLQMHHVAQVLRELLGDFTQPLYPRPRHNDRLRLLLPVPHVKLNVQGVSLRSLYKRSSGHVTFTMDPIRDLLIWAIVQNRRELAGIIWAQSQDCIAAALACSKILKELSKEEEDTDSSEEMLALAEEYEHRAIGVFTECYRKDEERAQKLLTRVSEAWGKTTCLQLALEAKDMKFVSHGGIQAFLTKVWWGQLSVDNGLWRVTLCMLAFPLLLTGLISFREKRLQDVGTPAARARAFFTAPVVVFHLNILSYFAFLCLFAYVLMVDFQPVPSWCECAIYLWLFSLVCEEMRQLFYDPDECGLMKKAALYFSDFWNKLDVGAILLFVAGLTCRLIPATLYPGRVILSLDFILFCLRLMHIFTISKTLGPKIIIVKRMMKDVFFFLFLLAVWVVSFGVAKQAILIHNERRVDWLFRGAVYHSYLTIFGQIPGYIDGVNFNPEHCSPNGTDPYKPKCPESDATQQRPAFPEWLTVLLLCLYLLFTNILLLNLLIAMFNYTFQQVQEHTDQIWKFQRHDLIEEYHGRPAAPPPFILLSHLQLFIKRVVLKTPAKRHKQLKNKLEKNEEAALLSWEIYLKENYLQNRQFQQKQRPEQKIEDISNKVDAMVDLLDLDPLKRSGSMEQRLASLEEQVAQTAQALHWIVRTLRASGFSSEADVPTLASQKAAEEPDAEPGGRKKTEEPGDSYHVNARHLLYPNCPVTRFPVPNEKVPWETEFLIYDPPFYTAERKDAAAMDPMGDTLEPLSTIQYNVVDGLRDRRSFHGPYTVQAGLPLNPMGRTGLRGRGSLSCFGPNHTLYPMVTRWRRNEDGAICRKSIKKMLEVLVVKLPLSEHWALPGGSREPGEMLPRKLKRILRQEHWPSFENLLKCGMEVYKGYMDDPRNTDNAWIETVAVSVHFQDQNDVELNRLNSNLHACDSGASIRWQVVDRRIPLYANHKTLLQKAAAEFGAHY
T2 sequence (O94759 whole entry R302A/R358A): as the sequence (O94759 whole entry) above, with R302A, R358A counted along it

## C=CC1=C(C)/C(=C/c2[nH]c(Cc3[nH]c(/C=C4\NC(=O)C(C)=C4C=C)c(C)c3CCC(=O)O)c(CCC(=O)O)c2C)NC1=O [bilirubin, Bilirubin]
[1]; Trpm2+/+ mice, 24 h after tMCAO
  UCB concentration in serum and CSF, Bil group vs Ctrl group: much higher
[1]; Trpm2−/− mice, 24 h after tMCAO
  level of UCB, Bil group vs Ctrl group: did not change
[1]; mice injected with bilirubin 50 μg/g i.p., after tMCAO
  TB levels in serum and CSF vs saline: markedly higher
[2]; bilirubin 9 μM, −100 to +100 mV, control solution
  magnitude of the TRPM2 currents evoked by voltage ramps: increased
[2]; bilirubin in the presence of PJ-34 (10 μM)
  activation of TRPM2 currents: remained effective
[2]; bilirubin, intracellular ADPR 5 μM (subthreshold)
  TRPM2 currents: increased TRPM2 currents
[2]; bilirubin, intracellular ADPR 500 μM (saturated)
  TRPM2 currents: failed to do so
[2]; bilirubin, intracellular BAPTA 30 mM replacing EGTA
  activation of the TRPM2 channel: remained capable of activating
[2]; concentration-response fit with the Hill equation, n = 4
  Hillslope: 1.0
[2]; concentration-response fit with the Hill equation, n = 4, read-out: EC50 for evoked TRPM2 currents
  EC50: 1.92 µM
hTRPM2 R302A/R358A
  activation of mutant TRPM2 currents: remained responsive
[3]; bilirubin 300 nM, at −40 mV, outside-out
  single-channel currents: −2.02 ± 0.05 pA
[3]; bilirubin perfusion, n = 12
  opening probability (Po): significantly increased
[3]; bilirubin-driven current-voltage relationship, −80 to +80 mV, n = 4–7
  slope conductance (single-channel): 76.29 ± 7.85 pS
[4]
  activation of mutant TRPM2 currents: effectively activated
[5]; Trpm2−/− slices, bilirubin for 5 and 20 min, synaptic blockers present
  excitability of cortical neurons: absent
[5]; Trpm2−/−, 20 min after bilirubin application, 2.5 nA current in 0.3 ms
  spike amplitude: significantly attenuated
